Test results from US12139481B2, “Compositions comprising macrocycle derivatives incorporating bridged macrocycles and methods of producing and using same” (Southwestern Oklahoma State University, priority 2015, dated 2024).
pIC50: −log10 of the molar value.

Experiments:
[1] = test system: L. donovani promastigotes; assay: Antileishmanial Alamar Blue assay on promastigotes; assay type: cell-based, Leishmania donovani; settings: for X more potent than Pentamidine: L. donovani, ratio of molar IC50 to Pentamidine; for L. donovani IC50 / pIC50: promastigotes, 48 hours, Alamar Blue; for pIC50: read-out: L. donavani IC50
Method in brief: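 L. donovani promastigotes in RPMI 1640 with 10% FCS, from 3-day culture, were set at 5×10^5/mL and exposed to compound (50-3.1 μg/mL) for 48 hours at 26° C. Growth read by Alamar Blue fluorescence (ex 544/em 590 nm); IC50 from percent growth versus concentration.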

[2] = test system: Plasmodium falciparum D6 clone (Sierra Leon, chloroquine-sensitive); assay: In vitro antimalarial assay, chloroquine-sensitive D6 clone; assay type: cell-based; settings: D6 clone; for pIC50: converted with molecular weight, read-out: P. falciparum D6 IC50; for X more potent than chloroquine: molar IC50 ratio versus chloroquine
Protocol: (§1) The compounds were assayed for in vitro antimalarial activity against the W2 clone and D6 clone of the pathogenic Plasmodium falciparum. The strains of P. falciparum were obtained from the Division of Experimental Therapeutics, Walter Reed Army Institute of Research, Washington D.C. Strains of Sierra Leon D6 and Indochina W2 are chloroquine-sensitive and chloroquine-resistant, respectively. The parasite was grown in type A human RBCs and, two strains subcultured daily with fresh medium and blood cells. On the day of the assay, a suspension of infected blood cells (2% parasitemia and 2% hematocrit) was prepared using type A human red blood cells. Assays were performed by standard 96-well flat-bottomed microplate methods and done in duplicate at different concentrations. IC50 values were obtained from the dose curves. Artemisinin and chloroquine were included in each assay as the drug controls, and DMSO was used as vehicle control. The whole protocol was developed based on the published method of Makler. The cytotoxicity assays were also performed in parallel against the Vero cells, and the selectivity index was measured. A selectivity index of >9 was considered to indicate a lead for further development of antimalarial drug.

[3] = test system: Plasmodium falciparum W2 clone (Indochina, chloroquine-resistant); assay: In vitro antimalarial assay, chloroquine-resistant W2 clone; assay type: cell-based; settings: W2 clone; for pIC50: converted with molecular weight, read-out: P. falciparum W2 IC50; for X more potent than chloroquine: molar IC50 ratio versus chloroquine
Protocol: as §1

[4] = test system: S. mansoni newly transformed schistosomula (NTS); assay: In vitro testing on Schistosoma mansoni newly transformed schistosomula (NTS), viability score; assay type: cell-based; settings: 72 h
Protocol: Assays were prepared according to the laboratory SOP for the lab of Dr. Jennifer Keiser (Swiss Tropical and Public Health Institute, Basel). Harvested S. mansoni cercariae (Liberian strain) obtained from infected Biomphalaria glabrata snails were mechanically transformed into newly transformed schistosomula (NTS) following standard procedures. Briefly, snails were placed under light in the morning to stimulate cercarial shedding. The cercarial suspension was collected, cooled for 30 minutes, and then vigorously pipetted (30×) and vortexed (3 minutes). The suspension was then placed in the incubator (37° C. and 5% CO2) for 30 minutes, and the vortexing and pipetting steps were repeated. The transformation was complete at this point, and the tails were separated from the heads by rinsing three times with cold HBSS. NTS were then incubated overnight in culture medium overnight and used the next day.
The original stock compounds (which were not already dissolved) were dissolved in dimethyl sulfoxide (DMSO) to a concentration of 10 mM. 100 NTS were placed in each well of a 96-well plate with culture medium, and the test compound for a final well volume of 250 μl. […] NTS incubated with no more than 1% DMSO served as control. NTS were kept in an incubator at 37° C. and 5% CO2 for up to 72 hours. After 72 hours, the condition of the NTS was microscopically evaluated using a scale from 3 (normal activity and no tegument alteration) to 0 (dead, completely granulated).

[5] = test system: Cryptococcus neoformans ATCC 90113; assay: Antimicrobial microdilution assay against Cryptococcus neoformans (modified CLSI/NCCLS, optical density); assay type: cell-based; settings: for X more potent than Amphotericin B: C. neoformans, ratio of molar IC50 to Amphotericin B; for C. neoformans IC50 / pIC50: in vitro, C. neoformans ATCC 90113; for pIC50: read-out: C. neoformans IC50 (mol/L)
Method in brief: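 Broth microdilution (modified CLSI) in RPMI pH 6.0, samples serially diluted in 20% DMSO/saline and tested in duplicate, growth followed by OD630 before and after incubation. MFC is the lowest concentration giving no growth when 5 μL from clear wells is plated on agar.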

C. glabrata ATCC 90030 = assay: Antifungal broth dilution assay against C. glabrata (modified CLSI); assay type: cell-based, Candida glabrata; settings: for C. glabrata IC50 / pIC50: in vitro; for pIC50: converted with molecular weight; for X more potent than Amphotericin B: molar IC50 ratio versus amphotericin B
Method in brief: (§2)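 Modified CLSI broth microdilution with OD monitoring before and after incubation at 35 °C: Candida in RPMI 1640/MOPS pH 6.0, 1.5×10^3 CFU/ml, 46-50 h; Staphylococcus in cation-adjusted Mueller-Hinton pH 7.3, 5.0×10^5 CFU/ml, 16-20 h. IC50 from curve fit; MIC is the lowest concentration with no growth; MFC/MBC from subculture.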

[6] = test system: Staphylococcus aureus ATCC 29213; assay: Antibacterial broth dilution assay against S. aureus (modified CLSI); assay type: cell-based
Method in brief: as §2

| Molecule | X more potent than Pentamidine [1] | L. donovani IC50 [1] [µg/mL] | pIC50 [1] | P. falciparum D6 IC50 [2] [µg/mL] | pIC50 [2] | X more potent than chloroquine [2] | P. falciparum W2 IC50 [3] [µg/mL] | pIC50 [3] | X more potent than chloroquine [3] | Effect at 72 h (%) ([4]; NTS S. mansoni, 33 μM) | X more potent than Amphotericin B [5] | C. neoformans IC50 [5] [µg/mL] | pIC50 [5] | C. glabrata IC50 (C. glabrata ATCC 90030) [µg/mL] | pIC50 (C. glabrata ATCC 90030) | X more potent than Amphotericin B (C. glabrata ATCC 90030) | Effect at 72 h (%) ([4]; NTS S. mansoni at 10 μM) | S. aureus IC50 ([6]; in vitro) [µg/mL] | pIC50 ([6]; in vitro, converted with molecular weight) | X more potent than ciprofloxacen ([6]; molar IC50 ratio versus ciprofloxacen) |
| --- | --- | --- | --- | --- | --- | --- | --- | --- | --- | --- | --- | --- | --- | --- | --- | --- | --- | --- | --- | --- |
| c1ccc(CN2CCN3CCN(CC2)CCN(Cc2ccccc2)CC3)cc1 [ANC14, Bn2Bcyclen] | 0.53 | 3.80 | 5.00 | 0.5110 | 5.87 | 0.03 | 0.7602 | 5.70 | 0.34 | 43.24 | – | – | – | – | – | – | – | – | – | – |
| CC(=O)[O-].CC(=O)[O-].CC(=O)[O-].F[P-](F)(F)(F)(F)F.F[P-](F)(F)(F)(F)F.F[P-](F)(F)(F)(F)F.F[P-](F)(F)(F)(F)F.[NH4+].[Zn+2].[Zn+2].[Zn+2].c1c(CN2CCCN3CCN(CCCNCC2)CC3)cc(CN2CCCN3CCN(CCCNCC2)CC3)cc1CN1CCCN2CCN(CCCNCC1)CC2 [CDG026, [Zn3(tris-SB-Cyclams)(OAc)3][PF6]3•NH4PF6] | – | – | – | – | – | – | – | – | – | 11.71 | 0.04 | 10.030 | 5.25 | 3.420 | 5.71 | 0.73 | – | – | – | – |
| CC(=O)[O-].CC(=O)[O-].CC(=O)[O-].F[P-](F)(F)(F)(F)F.F[P-](F)(F)(F)(F)F.F[P-](F)(F)(F)(F)F.O.[Ni+2].[Ni+2].[Ni+2].c1c(CN2CCNCCN3CCN(CC3)CC2)cc(CN2CCNCCN3CCN(CC3)CC2)cc1CN1CCNCCN2CCN(CC2)CC1 [CDG030, [Ni3(tris-SB-Cyclens)0Ac)3][PF6]3•H2O] | – | – | – | – | – | – | – | – | – | 18.02 | 0.45 | ≤ 0.800 | 6.28 | 4.170 | 5.56 | 0.52 | – | – | – | – |
| c1ccc(CN2CCCN3CCN(CCCN(Cc4ccccc4)CC3)CC2)cc1 [JGL45, Bn2Bcyclam] | 0.55 | 3.94 | 5.01 | 1.0894 | 5.57 | 0.01 | 0.1772 | 6.36 | 1.56 | 81.08 | – | – | – | – | – | – | 44.83 | – | – | – |
| CC(=O)[O-].CC(=O)[O-].CN1CCCN2CCN(CCCN(Cc3ccc(CN4CCCN5CCN(C)CCCN(CC5)CC4)cc3)CC2)CC1.F[P-](F)(F)(F)(F)F.F[P-](F)(F)(F)(F)F.[Ni+2].[Ni+2] [KS33, [Ni2(p-CB-cyclams)(OAc)2](PF6)2] | – | – | – | – | – | – | – | – | – | 0.00 | 0.26 | 1.020 | 6.04 | – | – | – | – | 8.490 | 5.12 | 0.04 |
| [Cl-].[Cl-].[Fe+2].c1ccc(CN2CCCN3CCN(CCCN(Cc4ccccc4)CC3)CC2)cc1 [NS08, Fe(Bn2Bcyclam)Cl2] | 1.66 | 1.71 | 5.49 | 0.1726 | 6.49 | 0.11 | 0.2271 | 6.37 | 1.59 | 18.02 | – | – | – | – | – | – | 51.72 | – | – | – |
| CC(=O)[O-].CC(=O)[O-].CN(C)C=O.F[P-](F)(F)(F)(F)F.F[P-](F)(F)(F)(F)F.[Co+2].[Co+2].c1cc(CN2CCNCCN3CCN(CC3)CC2)ccc1CN1CCNCCN2CCN(CC2)CC1 [OB30, [Co2(p-SB-Cyclens)(OAc)2][PF6]2•DMF] | – | – | – | – | – | – | – | – | – | 5.41 | 0.33 | ≤ 0.800 | 6.14 | 0.800 | 6.14 | 1.95 | – | – | – | – |
| CC(=O)[O-].CC(=O)[O-].CN1CCCN2CCN(CCCN(Cc3cccc(CN4CCCN5CCN(C)CCCN(CC5)CC4)c3)CC2)CC1.F[P-](F)(F)(F)(F)F.F[P-](F)(F)(F)(F)F.[Cu+2].[Cu+2] [RM52, [Cu2(m-CB-Cyclams)(OAc)2][PF6]2] | – | – | – | – | – | – | – | – | – | 5.41 | 0.32 | 0.820 | 6.13 | 4.940 | 5.35 | 0.32 | – | – | – | – |
| CC(=O)[O-].F[P-](F)(F)(F)(F)F.[Cu+2].c1ccc(CN2CCN3CCN(CC2)CCN(Cc2ccccc2)CC3)cc1 [RM58] | – | – | – | 0.0947 | 6.83 | 0.25 | 0.2015 | 6.51 | 2.18 | 5.41 | – | – | – | – | – | – | – | – | – | – |
| [Cu3(tris-SB-Cyclams)(OAc)3][PF6]3•1.5NH4PF6 [CDG027] | – | – | – | – | – | – | – | – | – | 11.71 | 0.34 | 1.280 | 6.16 | 1.630 | 6.05 | 1.60 | – | – | – | – |
| [Mn(Bn1Me1-CB-Cyclam)Cl2] [NS11] | – | – | – | 0.6142 | 5.87 | 0.03 | 0.5300 | 5.94 | 0.58 | 5.41 | 0.02 | 5.038 | 4.96 | – | – | – | – | – | – | – |
